{"source": "paper doi:10.1101/2025.03.13.642871v2", "about": "(biorxiv, 2026)", "key": {"[1]": {"target": "CREBBP (Homo sapiens, UniProt Q92793)", "sequence (Q92793 2-2442)": "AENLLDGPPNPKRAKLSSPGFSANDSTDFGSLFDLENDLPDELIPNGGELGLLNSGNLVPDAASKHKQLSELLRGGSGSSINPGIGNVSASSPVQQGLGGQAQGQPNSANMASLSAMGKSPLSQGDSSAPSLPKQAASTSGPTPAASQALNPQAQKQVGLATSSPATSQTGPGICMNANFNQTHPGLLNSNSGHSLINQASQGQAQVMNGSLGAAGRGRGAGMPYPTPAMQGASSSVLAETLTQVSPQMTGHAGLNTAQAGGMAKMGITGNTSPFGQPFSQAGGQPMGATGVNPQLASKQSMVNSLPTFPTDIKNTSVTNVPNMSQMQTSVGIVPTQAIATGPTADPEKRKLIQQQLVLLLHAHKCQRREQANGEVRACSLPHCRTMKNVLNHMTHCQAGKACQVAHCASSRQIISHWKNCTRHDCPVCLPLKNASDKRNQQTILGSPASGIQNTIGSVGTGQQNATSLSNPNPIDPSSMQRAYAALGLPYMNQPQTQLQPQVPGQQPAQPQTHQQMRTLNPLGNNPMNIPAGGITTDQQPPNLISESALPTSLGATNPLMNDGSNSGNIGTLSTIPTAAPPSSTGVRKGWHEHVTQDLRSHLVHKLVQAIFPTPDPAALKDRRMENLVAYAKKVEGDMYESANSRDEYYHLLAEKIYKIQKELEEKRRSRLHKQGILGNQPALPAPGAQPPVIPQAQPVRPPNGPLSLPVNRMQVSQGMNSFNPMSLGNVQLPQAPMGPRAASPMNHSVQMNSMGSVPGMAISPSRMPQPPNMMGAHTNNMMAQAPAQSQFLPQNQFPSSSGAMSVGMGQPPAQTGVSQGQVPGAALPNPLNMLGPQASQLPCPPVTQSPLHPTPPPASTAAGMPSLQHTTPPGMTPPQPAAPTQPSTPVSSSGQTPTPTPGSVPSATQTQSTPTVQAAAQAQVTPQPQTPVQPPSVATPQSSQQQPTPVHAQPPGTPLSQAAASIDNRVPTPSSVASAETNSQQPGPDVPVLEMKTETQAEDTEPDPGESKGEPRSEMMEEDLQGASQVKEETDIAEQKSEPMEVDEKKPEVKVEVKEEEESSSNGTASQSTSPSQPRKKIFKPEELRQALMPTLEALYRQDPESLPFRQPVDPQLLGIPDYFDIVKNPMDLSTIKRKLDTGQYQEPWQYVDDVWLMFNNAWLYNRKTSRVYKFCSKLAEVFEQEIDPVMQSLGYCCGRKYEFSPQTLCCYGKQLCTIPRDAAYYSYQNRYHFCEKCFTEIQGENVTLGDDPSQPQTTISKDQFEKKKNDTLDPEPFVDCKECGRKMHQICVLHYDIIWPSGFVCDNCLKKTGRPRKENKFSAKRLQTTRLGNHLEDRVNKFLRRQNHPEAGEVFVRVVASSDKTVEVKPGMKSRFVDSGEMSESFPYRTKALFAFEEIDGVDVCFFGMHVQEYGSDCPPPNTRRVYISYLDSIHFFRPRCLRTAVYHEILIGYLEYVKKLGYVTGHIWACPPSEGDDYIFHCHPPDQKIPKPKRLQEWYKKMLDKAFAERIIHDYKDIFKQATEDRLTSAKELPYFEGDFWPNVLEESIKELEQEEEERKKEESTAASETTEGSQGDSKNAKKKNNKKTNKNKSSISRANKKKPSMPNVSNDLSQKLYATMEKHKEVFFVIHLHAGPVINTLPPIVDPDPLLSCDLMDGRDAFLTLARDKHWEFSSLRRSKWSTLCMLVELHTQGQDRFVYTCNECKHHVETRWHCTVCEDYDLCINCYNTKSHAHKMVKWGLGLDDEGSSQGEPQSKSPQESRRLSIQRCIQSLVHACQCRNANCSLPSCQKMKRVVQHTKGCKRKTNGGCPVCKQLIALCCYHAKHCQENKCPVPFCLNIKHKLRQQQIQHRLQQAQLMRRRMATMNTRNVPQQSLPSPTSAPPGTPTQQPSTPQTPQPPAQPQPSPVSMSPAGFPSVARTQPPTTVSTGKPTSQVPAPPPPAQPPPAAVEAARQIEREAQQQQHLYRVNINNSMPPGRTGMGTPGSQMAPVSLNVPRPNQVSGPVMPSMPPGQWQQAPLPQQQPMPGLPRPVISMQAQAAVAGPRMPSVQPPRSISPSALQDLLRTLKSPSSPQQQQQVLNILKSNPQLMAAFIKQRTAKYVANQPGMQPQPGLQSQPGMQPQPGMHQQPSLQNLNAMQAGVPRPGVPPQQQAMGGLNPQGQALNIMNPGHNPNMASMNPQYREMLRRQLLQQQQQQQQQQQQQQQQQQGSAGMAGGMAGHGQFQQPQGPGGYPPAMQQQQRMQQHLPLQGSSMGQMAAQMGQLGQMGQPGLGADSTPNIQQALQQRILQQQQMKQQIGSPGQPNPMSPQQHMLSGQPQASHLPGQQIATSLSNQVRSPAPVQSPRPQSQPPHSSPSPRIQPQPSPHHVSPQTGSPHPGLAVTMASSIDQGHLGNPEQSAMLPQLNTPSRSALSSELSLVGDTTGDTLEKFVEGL", "assay": "cell-free H3K27 acetylation, immunoblot", "assay_type": "biochemical"}, "[2]": {"target": "p300 (Homo sapiens, UniProt Q09472)", "sequence (Q09472 2-2414)": "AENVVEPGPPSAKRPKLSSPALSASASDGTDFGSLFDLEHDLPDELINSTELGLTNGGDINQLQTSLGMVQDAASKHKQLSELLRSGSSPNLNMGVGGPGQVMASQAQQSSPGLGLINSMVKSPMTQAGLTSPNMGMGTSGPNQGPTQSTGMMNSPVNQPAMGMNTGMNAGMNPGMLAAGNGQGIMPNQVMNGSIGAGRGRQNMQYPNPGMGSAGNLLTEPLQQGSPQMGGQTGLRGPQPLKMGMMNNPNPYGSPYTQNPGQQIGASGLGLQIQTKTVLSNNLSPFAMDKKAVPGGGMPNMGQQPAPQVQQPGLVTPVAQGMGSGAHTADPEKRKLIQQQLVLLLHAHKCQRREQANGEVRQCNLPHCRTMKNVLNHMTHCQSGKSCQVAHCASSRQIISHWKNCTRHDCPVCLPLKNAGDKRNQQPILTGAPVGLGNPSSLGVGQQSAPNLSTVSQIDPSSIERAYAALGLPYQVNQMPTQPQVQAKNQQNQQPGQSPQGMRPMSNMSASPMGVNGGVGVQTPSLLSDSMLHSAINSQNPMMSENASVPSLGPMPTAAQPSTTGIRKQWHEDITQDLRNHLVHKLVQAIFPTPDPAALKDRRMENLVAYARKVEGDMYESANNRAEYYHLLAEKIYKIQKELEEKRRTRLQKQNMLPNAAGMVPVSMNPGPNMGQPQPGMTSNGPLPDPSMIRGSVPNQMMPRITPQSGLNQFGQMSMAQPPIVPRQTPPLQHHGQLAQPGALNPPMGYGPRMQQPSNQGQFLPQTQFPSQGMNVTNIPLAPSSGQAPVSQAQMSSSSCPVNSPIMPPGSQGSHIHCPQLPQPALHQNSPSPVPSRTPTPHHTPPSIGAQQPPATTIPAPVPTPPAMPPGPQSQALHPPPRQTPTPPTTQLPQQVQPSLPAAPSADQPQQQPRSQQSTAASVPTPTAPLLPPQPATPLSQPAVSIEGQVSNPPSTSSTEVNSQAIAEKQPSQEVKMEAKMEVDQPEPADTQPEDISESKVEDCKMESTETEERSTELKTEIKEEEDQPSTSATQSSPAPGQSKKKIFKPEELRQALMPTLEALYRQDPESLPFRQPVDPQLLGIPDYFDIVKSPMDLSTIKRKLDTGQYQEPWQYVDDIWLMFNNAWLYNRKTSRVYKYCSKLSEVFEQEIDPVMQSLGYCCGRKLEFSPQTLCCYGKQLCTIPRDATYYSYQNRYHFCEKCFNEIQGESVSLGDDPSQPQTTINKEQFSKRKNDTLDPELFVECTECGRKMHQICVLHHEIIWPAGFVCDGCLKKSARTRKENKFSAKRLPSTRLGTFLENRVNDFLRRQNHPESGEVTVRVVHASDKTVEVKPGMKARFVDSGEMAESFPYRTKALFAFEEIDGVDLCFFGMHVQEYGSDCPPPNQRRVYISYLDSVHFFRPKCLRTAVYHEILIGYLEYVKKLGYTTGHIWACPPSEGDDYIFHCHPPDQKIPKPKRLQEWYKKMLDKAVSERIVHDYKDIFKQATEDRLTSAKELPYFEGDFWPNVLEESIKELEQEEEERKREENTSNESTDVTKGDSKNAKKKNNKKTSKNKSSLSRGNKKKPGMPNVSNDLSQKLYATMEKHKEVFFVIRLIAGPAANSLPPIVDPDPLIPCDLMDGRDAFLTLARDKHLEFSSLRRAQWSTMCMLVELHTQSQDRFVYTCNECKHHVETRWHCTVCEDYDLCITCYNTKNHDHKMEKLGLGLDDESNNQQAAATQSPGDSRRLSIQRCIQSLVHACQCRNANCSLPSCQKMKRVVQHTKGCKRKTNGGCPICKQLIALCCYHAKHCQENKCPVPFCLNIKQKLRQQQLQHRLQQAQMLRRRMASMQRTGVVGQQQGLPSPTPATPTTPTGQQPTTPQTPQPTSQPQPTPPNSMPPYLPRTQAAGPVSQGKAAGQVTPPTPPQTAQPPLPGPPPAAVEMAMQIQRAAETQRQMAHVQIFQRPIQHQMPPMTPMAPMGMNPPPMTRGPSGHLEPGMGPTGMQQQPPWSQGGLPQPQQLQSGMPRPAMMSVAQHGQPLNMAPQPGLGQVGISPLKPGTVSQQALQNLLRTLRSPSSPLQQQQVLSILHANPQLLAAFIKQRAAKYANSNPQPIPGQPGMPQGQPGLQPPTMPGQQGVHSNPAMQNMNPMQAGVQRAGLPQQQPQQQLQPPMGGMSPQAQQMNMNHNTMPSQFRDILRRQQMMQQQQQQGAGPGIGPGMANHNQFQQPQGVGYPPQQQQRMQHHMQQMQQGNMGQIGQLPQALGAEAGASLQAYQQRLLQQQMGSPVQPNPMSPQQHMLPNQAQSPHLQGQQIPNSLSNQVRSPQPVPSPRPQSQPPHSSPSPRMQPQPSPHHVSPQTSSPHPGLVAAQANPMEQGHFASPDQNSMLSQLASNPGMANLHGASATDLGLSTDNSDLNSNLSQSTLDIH", "assay": "cell-free H3K27 acetylation, immunoblot", "assay_type": "biochemical"}, "[3]": {"target": "T1, p300 bromodomain (Homo sapiens, UniProt Q09472)", "T1 sequence (Q09472 1049-1156 limits assumed)": "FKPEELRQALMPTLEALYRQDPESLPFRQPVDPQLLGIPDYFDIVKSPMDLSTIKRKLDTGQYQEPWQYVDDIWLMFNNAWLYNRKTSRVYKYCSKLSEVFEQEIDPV", "assay": "SPR, single-cycle kinetics, NTA chip", "assay_type": "binding"}}, "data": [{"smiles": "CCOc1cccc(OCCN(C)C)c1C(=O)Nc1ccc(Cl)c(C(F)(F)F)c1", "note": "[YF2]", "values": [{"measurement": "EC50", "setting": "[1]", "value": 15.8, "unit": "µM"}, {"measurement": "EC50", "setting": "[2]", "value": 4.32, "unit": "µM"}, {"measurement": "Kd", "setting": "[3]", "value": 4.42, "unit": "µM"}]}]}
